Experimental data from patent US4564627A, “Feed composition” (Nihon Nohyaku Co., Ltd., priority 1982, dated 1986).
“Also recorded” adds a separate entry of the source.

Experiments:
LD50 mouse (male) = settings: in vivo
Source text: Examples of the compounds represented by the general formula [1] according to this invention and their toxicities are shown below.

[1] = Growth of body weight of broilers (Test Example 1); format: in vivo, "A A Fuji" broilers (chicken); settings: for Body weight at week age 0: week age 0 (before addition); for Body weight at week age 3: week age 3 (start of addition)
Procedure: (§1) To each group consisting of 30 "A A Fuji" broilers (15 male, 15 female), a commercially available early period broiler feed (crumble form, Cp 22%, ME 3,030 kcal/kg) was given from beginning of feeding to 4 week age, and a latter period broiler feed (mash form, Cp 18%, ME 3,030 kcal/kg) was given ad libitum from 4 week age to 10 week age. The test period was from Oct. 10, 1981 through Dec. 20, 1981. Addition of test compounds to the above feeds in predetermined concentrations was conducted from 3 week age through the completion of the test.
(1) Growth of body weight
[…] All broilers were measured and an average body weight was calculated for each group.

[2] = Feed consumption of broilers (Test Example 1); format: in vivo, "A A Fuji" broilers (chicken); settings: 2,400 ppm in feed
Procedure: as §1
Feed consumption was calculated by weighing feeds left at the time of body weight measurement, and therefrom feed conversion ratio was calculated.

broilers [3] = assay: Abdominal fat deposit of broilers (Test Example 1); format: in vivo, "A A Fuji" broilers (chicken)
Procedure: as §1
(§2) Five broilers at 6 week age, five broilers at 8 week age and ten broilers at 10 week age were taken out from each group and slaughtered. Immediately after slaughtering, they were cooled in water for about 2 hr and the body weight of each slaughtered broiler was measured and subsequently they were stored at 2° C. for about 20 hr. Then, in order to measure abdominal fat, mesentary fat was removed and fat adhered to from gizzard to proventriculus was collected and weighed as the weight of abdominal fat. This weight was divided by body weight to obtain abdominal fat deposit per 100 g of body weight. Further, liver fat was also collected and weighed. A liver under freeze storage was cut into slices in a total quantity of 2 to 3 g. The slices were placed in a cylindrical filter paper and weighed. Then, these slices were dried for 3 hr in a hot air drier kept at 90° C. and subsequently extracted for 17 hr with ethyl ether in a Soxhlet fat extractor. After drying the extract for 3 hr at 60° C. and weighing the residue, crude fat content in liver was calculated.

broilers [4] = assay: Crude fat content in liver of broilers (Test Example 1); format: in vivo, "A A Fuji" broilers (chicken)
Procedure: as §1, §2

laying hens [5] = assay: Thickness of eggshell of laying hens (Test Example 2); format: in vivo
Source text: (§3) As test hens, commercially available laying hens of 480 day age were used. The control group fed with a feed not containing any compound of this invention consisted of 100 laying hens, and each test group fed with a feed containing a compound of this invention consisted of 10 laying hens. The test was repeated twice. The test period was 16 weeks from Nov. 17, 1981 to Mar. 8, 1982. The first 4 weeks from the start was a preliminary observation period, during which each group was controlled so as to give the same egg production rate. As the feed, a commercially available feed for laying hens (Cp 16% or above, ME 2,800 kcal/kg or above) was used. From the 5th week, predetermined quantities of test compounds were uniformly added to this feed and the resulting blended feeds were given to test groups. Feeds and water were given ad libitum. Constant lighting was made for 14 hr a day. Egg production rate was daily recorded for each individual hen and egg weight for each test group. Feed intake quantity was obtained by calculating on every other week a difference between quantity fed and quantity left. For examining egg quality, strength of eggshell and thickness of eggshell were measured for all normal eggs laid during a period of the previous day of measurement to 3 P.M. of the measurement day. Strength of eggshell was measured by a FHK eggshell strength tester model FN-597, and thickness of eggshell by a dial thickness gauge.

laying hens [6] = assay: Strength of eggshell of laying hens (Test Example 2); format: in vivo
Source text: as §3

[7] = Feed intake of laying hens (Test Example 2); format: in vivo; settings: 2,500 ppm in feed
Source text: as §3, with “Constant lighting was made for 14 hr a day.” left out

## CC(C)OC(=O)C(C(=O)OC(C)C)=C1SC(C(=O)O)S1 (stereo not shown)
LD50 mouse (male)
  LD50: > 5000 mg/kg

## CC(C)OC(=O)C(C(=O)OC(C)C)=C1SCS1 [compound 1]
LD50 mouse (male)
  LD50: > 5000 mg/kg

## CCOC(=O)C(C(=O)OC(C)C)=C1SCS1 [compound 2]
LD50 mouse (male)
  LD50: > 5000 mg/kg

## CC(C)OC(=O)C(C(=O)OC(C)C)=C1SC=CS1 [compound 4]
LD50 mouse (male); unit printed kg/mg
  LD50: 3120 mg/kg
[1]; broilers, 2,400 ppm in feed
  Growth of body weight (in words): badly affected; also recorded: lower growth of body weight
[1]; 200 ppm in feed from 3 week age
  Body weight at week age 0: 41 g
[1]; 400 ppm in feed from 3 week age
  Body weight at week age 0: 41 g
[1]; 800 ppm in feed from 3 week age
  Body weight at week age 0: 41 g
[1]; 2,400 ppm in feed from 3 week age
  Body weight at week age 0: 41 g
[1]; 200 ppm in feed
  Body weight at week age 3: 620 g
  Body weight at week age 4: 981 g
  Body weight at week age 5: 1,341 g
  Body weight at week age 6: 1,661 g
  Body weight at week age 7: 2,090 g
  Body weight at week age 8: 2,502 g
  Body weight at week age 9: 2,860 g
  Body weight at week age 10: 3,105 g
[1]; 400 ppm in feed
  Body weight at week age 3: 626 g
  Body weight at week age 4: 985 g
  Body weight at week age 5: 1,346 g
  Body weight at week age 6: 1,667 g
  Body weight at week age 7: 2,102 g
  Body weight at week age 8: 2,512 g
  Body weight at week age 9: 2,874 g
  Body weight at week age 10: 3,115 g
[1]; 800 ppm in feed
  Body weight at week age 3: 625 g
  Body weight at week age 4: 984 g
  Body weight at week age 5: 1,330 g
  Body weight at week age 6: 1,662 g
  Body weight at week age 7: 2,065 g
  Body weight at week age 8: 2,496 g
  Body weight at week age 9: 2,871 g
  Body weight at week age 10: 3,098 g
[1]; 2,400 ppm in feed
  Body weight at week age 3: 621 g
  Body weight at week age 4: 974 g
  Body weight at week age 5: 1,316 g
  Body weight at week age 6: 1,640 g
  Body weight at week age 7: 2,003 g
  Body weight at week age 8: 2,388 g
  Body weight at week age 9: 2,796 g
  Body weight at week age 10: 2,984 g
[2]
  Feed consumption (in words): significant reduction of feed consumption
Broilers [3]; 6w, 200 ppm in feed
  Abdominal fat deposit: 3.20 g/100 g
Broilers [3]; 6w, 400 ppm in feed
  Abdominal fat deposit: 3.02 g/100 g
Broilers [3]; 6w, 800 ppm in feed
  Abdominal fat deposit: 2.93 g/100 g
Broilers [3]; 6w, 2,400 ppm in feed
  Abdominal fat deposit: 2.92 g/100 g
Broilers [3]; 8w, 200 ppm in feed
  Abdominal fat deposit: 3.55 g/100 g
Broilers [3]; 8w, 400 ppm in feed
  Abdominal fat deposit: 3.18 g/100 g
Broilers [3]; 8w, 800 ppm in feed
  Abdominal fat deposit: 3.22 g/100 g
Broilers [3]; 8w, 2,400 ppm in feed
  Abdominal fat deposit: 3.15 g/100 g
Broilers [3]; 10w, 200 ppm in feed
  Abdominal fat deposit: 3.83 g/100 g
Broilers [3]; 10w, 400 ppm in feed
  Abdominal fat deposit: 3.78 g/100 g
Broilers [3]; 10w, 800 ppm in feed
  Abdominal fat deposit: 3.37 g/100 g
Broilers [3]; 10w, 2,400 ppm in feed
  Abdominal fat deposit: 3.22 g/100 g
Broilers [4]; 6w, 200 ppm in feed
  Crude fat content in liver: 2.20%
Broilers [4]; 6w, 400 ppm in feed
  Crude fat content in liver: 2.06%
Broilers [4]; 6w, 800 ppm in feed
  Crude fat content in liver: 2.17%
Broilers [4]; 6w, 2,400 ppm in feed
  Crude fat content in liver: 2.11%
Broilers [4]; 8w, 200 ppm in feed
  Crude fat content in liver: 5.23%
Broilers [4]; 8w, 400 ppm in feed
  Crude fat content in liver: 5.02%
Broilers [4]; 8w, 800 ppm in feed
  Crude fat content in liver: 4.62%
Broilers [4]; 8w, 2,400 ppm in feed
  Crude fat content in liver: 4.04%
Broilers [4]; 10w, 200 ppm in feed
  Crude fat content in liver: 4.47%
Broilers [4]; 10w, 400 ppm in feed
  Crude fat content in liver: 4.29%
Broilers [4]; 10w, 800 ppm in feed
  Crude fat content in liver: 4.25%
Broilers [4]; 10w, 2,400 ppm in feed
  Crude fat content in liver: 3.96%
Laying hens [5]; 509th day, 100 ppm in feed
  Eggshell thickness: 0.345 mm
Laying hens [5]; 509th day, 500 ppm in feed
  Eggshell thickness: 0.342 mm
Laying hens [5]; 509th day, 2,500 ppm in feed
  Eggshell thickness: 0.336 mm
Laying hens [5]; 555th day, 100 ppm in feed
  Eggshell thickness: 0.343 mm
Laying hens [5]; 555th day, 500 ppm in feed
  Eggshell thickness: 0.350 mm
Laying hens [5]; 555th day, 2,500 ppm in feed
  Eggshell thickness: 0.347 mm
Laying hens [5]; 612th day, 100 ppm in feed
  Eggshell thickness: 0.342 mm
Laying hens [5]; 612th day, 500 ppm in feed
  Eggshell thickness: 0.345 mm
Laying hens [5]; 612th day, 2,500 ppm in feed
  Eggshell thickness: 0.344 mm
Laying hens [6]; 509th day, 100 ppm in feed
  Eggshell strength: 2.47 kg
Laying hens [6]; 509th day, 500 ppm in feed
  Eggshell strength: 2.46 kg
Laying hens [6]; 509th day, 2,500 ppm in feed
  Eggshell strength: 2.44 kg
Laying hens [6]; 555th day, 100 ppm in feed
  Eggshell strength: 2.88 kg
Laying hens [6]; 555th day, 500 ppm in feed
  Eggshell strength: 2.93 kg
Laying hens [6]; 555th day, 2,500 ppm in feed
  Eggshell strength: 2.97 kg
Laying hens [6]; 612th day, 100 ppm in feed
  Eggshell strength: 2.97 kg
Laying hens [6]; 612th day, 500 ppm in feed
  Eggshell strength: 3.02 kg
Laying hens [6]; 612th day, 2,500 ppm in feed
  Eggshell strength: 3.08 kg
[7]
  Feed intake (in words): a lower value was seen with significance

## CCOC(=O)C(C(=O)OCC)=C1SC=CS1 [compound 5]
LD50 mouse (male)
  LD50: 4900 mg/kg

## CC(C)OC(=O)C(C(=O)OC(C)C)=C1SCC[S+]1[O-] (stereo not shown) [compound 7]
LD50 mouse (male)
  LD50: > 6000 mg/kg

## CC(C)OC(=O)C(C(=O)OC(C)C)=C1SCC(O)S1 (stereo not shown) [compound 8]
LD50 mouse (male)
  LD50: > 6590 mg/kg
